Values belong to the compound of their own block, whether it stands above or below them.
How the values were obtained:
[1] = molecular target: CDC42BPA (human) (UniProt Q5VT25); assay: KINOMEscan competition binding; conditions: compound 10.0 µM
[2] = molecular target: CIT (human) (UniProt O14578); assay: KINOMEscan competition binding; conditions: compound 10.0 µM
[3] = molecular target: IKBKB (human) (UniProt O14920); assay: KINOMEscan competition binding; conditions: compound 10.0 µM
[4] = molecular target: ABL2 (human) (UniProt P42684); assay: KINOMEscan competition binding; conditions: compound 10.0 µM
[5] = molecular target: MAPK1 (human) (UniProt P28482); assay: KINOMEscan competition binding; conditions: for kinase still bound, per cent of control: compound 10.0 µM
[6] = molecular target: GSK3B (human) (UniProt P49841); assay: KINOMEscan competition binding; conditions: compound 10.0 µM
[7] = molecular target: EPHA7 (human) (UniProt Q15375); assay: KINOMEscan competition binding; conditions: compound 10.0 µM
[8] = molecular target: FER (human) (UniProt P16591); assay: KINOMEscan competition binding; conditions: compound 10.0 µM
[9] = molecular target: CAMK2B (human) (UniProt Q13554); assay: KINOMEscan competition binding; conditions: compound 10.0 µM
[10] = tested on: KIT (human), P10721 [V559D/V654A]; assay: KINOMEscan competition binding; conditions: compound 10.0 µM
[11] = molecular target: WEE1 (human) (UniProt P30291); assay: KINOMEscan competition binding; conditions: compound 10.0 µM
[12] = molecular target: MAP3K9 (human) (UniProt P80192); assay: KINOMEscan competition binding; conditions: compound 10.0 µM
[13] = molecular target: ITK (human) (UniProt Q08881); assay: KINOMEscan competition binding; conditions: compound 10.0 µM
[14] = molecular target: CHEK1 (human) (UniProt O14757); assay: KINOMEscan competition binding; conditions: compound 10.0 µM
[15] = molecular target: MAP2K6 (human) (UniProt P52564); assay: KINOMEscan competition binding; conditions: compound 10.0 µM
[16] = molecular target: MAPK9 (human) (UniProt P45984); assay: KINOMEscan competition binding; conditions: compound 10.0 µM
[17] = molecular target: MAPK10 (human) (UniProt P53779); assay: KINOMEscan competition binding; conditions: compound 10.0 µM
[18] = molecular target: PAK1 (human) (UniProt Q13153); assay: KINOMEscan competition binding; conditions: compound 10.0 µM
[19] = molecular target: AKT1 (human) (UniProt P31749); assay: KINOMEscan competition binding; conditions: compound 10.0 µM
[20] = molecular target: FRK (human) (UniProt P42685); assay: KINOMEscan competition binding; conditions: compound 10.0 µM
[21] = molecular target: NLK (human) (UniProt Q9UBE8); assay: KINOMEscan competition binding; conditions: compound 10.0 µM
[22] = tested on: EGFR (human), P00533 [A750P; 747-749 del]; assay: KINOMEscan competition binding; conditions: compound 10.0 µM
[23] = molecular target: STK36 (human) (UniProt Q9NRP7); assay: KINOMEscan competition binding; conditions: compound 10.0 µM
[24] = molecular target: MAP4K4 (human) (UniProt O95819); assay: KINOMEscan competition binding; conditions: compound 10.0 µM
[25] = molecular target: JAK3 JH1 catalytic (human) (UniProt P52333); assay: KINOMEscan competition binding; conditions: compound 10.0 µM
[26] = molecular target: RPS6KA6 KD1 (human) (UniProt Q9UK32); assay: KINOMEscan competition binding; conditions: compound 10.0 µM
[27] = molecular target: CSNK1E (human) (UniProt P49674); assay: KINOMEscan competition binding; conditions: compound 10.0 µM
[28] = tested on: EGFR (human), P00533 [747-751 del / S ins]; assay: KINOMEscan competition binding; conditions: compound 10.0 µM
[29] = molecular target: CDK7 (human) (UniProt P50613); assay: KINOMEscan competition binding; conditions: compound 10.0 µM
[30] = molecular target: KDR (human) (UniProt P35968); assay: KINOMEscan competition binding; conditions: compound 10.0 µM
[31] = molecular target: MKNK2 (human) (UniProt Q9HBH9); assay: KINOMEscan competition binding; conditions: compound 10.0 µM
[32] = molecular target: STK32B (human) (UniProt Q9NY57); assay: KINOMEscan competition binding; conditions: compound 10.0 µM
[33] = molecular target: CDK5 (human) (UniProt Q00535); assay: KINOMEscan competition binding; conditions: compound 10.0 µM
[34] = molecular target: LYN (human) (UniProt P07948); assay: KINOMEscan competition binding; conditions: compound 10.0 µM
[35] = molecular target: ULK2 (human) (UniProt Q8IYT8); assay: KINOMEscan competition binding; conditions: compound 10.0 µM
[36] = molecular target: MAPK4 (human) (UniProt P31152); assay: KINOMEscan competition binding; conditions: compound 10.0 µM
[37] = molecular target: TLK2 (human) (UniProt Q86UE8); assay: KINOMEscan competition binding; conditions: compound 10.0 µM
[38] = molecular target: DDR2 (human) (UniProt Q16832); assay: KINOMEscan competition binding; conditions: compound 10.0 µM
[39] = molecular target: RET (human) (UniProt P07949); assay: KINOMEscan competition binding; conditions: compound 10.0 µM
[40] = molecular target: SIK1 (human) (UniProt P57059); assay: KINOMEscan competition binding; conditions: compound 10.0 µM
[41] = molecular target: JAK2 JH1 catalytic (human) (UniProt O60674); assay: KINOMEscan competition binding; conditions: compound 10.0 µM
[42] = molecular target: FES (human) (UniProt P07332); assay: Z-Lyte, FRET

Chain of MAPK9 (human) (P45984 whole entry, looked up): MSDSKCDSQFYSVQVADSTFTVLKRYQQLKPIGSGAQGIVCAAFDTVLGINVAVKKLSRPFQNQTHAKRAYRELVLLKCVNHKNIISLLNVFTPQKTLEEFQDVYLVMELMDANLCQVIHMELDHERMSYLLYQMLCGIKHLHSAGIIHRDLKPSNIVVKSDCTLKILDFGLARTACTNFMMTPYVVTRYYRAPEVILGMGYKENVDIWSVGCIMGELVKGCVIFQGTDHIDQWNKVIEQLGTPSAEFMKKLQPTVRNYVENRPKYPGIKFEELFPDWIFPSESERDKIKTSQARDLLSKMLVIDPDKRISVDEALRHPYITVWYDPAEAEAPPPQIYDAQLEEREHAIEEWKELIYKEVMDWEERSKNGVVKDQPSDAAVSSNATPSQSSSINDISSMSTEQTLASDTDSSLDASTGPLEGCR
Chain of RET (human) (P07949 whole entry, looked up): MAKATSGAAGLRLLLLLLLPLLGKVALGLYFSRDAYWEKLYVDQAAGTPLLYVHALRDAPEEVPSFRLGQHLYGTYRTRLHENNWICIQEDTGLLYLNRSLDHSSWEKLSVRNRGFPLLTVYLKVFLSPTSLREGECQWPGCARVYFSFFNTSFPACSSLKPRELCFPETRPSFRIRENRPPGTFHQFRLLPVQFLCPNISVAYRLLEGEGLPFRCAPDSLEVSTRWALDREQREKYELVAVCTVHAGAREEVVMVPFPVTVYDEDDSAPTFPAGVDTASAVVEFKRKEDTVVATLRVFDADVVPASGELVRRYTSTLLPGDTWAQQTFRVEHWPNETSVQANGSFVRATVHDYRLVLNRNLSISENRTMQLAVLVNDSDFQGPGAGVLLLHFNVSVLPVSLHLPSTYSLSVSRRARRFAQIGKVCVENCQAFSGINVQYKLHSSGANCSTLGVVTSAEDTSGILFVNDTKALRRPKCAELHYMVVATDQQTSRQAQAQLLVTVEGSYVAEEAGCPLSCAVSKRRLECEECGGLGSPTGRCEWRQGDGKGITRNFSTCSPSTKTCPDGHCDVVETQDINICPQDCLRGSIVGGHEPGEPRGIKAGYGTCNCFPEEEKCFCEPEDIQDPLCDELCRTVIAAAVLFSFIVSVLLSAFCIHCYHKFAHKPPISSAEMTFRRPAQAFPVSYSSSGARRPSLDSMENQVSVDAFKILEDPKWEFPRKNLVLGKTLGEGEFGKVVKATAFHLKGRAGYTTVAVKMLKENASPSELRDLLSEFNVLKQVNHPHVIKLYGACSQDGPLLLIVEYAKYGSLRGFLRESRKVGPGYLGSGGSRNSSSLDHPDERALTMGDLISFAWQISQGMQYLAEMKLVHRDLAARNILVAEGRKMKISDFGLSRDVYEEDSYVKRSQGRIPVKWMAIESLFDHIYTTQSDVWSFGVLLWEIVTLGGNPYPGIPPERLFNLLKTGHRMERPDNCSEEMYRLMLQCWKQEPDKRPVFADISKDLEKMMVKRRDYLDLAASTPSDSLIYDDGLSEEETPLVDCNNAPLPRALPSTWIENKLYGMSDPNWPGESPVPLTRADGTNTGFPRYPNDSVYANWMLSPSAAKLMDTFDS
Chain of KDR (human) (P35968 whole entry, looked up): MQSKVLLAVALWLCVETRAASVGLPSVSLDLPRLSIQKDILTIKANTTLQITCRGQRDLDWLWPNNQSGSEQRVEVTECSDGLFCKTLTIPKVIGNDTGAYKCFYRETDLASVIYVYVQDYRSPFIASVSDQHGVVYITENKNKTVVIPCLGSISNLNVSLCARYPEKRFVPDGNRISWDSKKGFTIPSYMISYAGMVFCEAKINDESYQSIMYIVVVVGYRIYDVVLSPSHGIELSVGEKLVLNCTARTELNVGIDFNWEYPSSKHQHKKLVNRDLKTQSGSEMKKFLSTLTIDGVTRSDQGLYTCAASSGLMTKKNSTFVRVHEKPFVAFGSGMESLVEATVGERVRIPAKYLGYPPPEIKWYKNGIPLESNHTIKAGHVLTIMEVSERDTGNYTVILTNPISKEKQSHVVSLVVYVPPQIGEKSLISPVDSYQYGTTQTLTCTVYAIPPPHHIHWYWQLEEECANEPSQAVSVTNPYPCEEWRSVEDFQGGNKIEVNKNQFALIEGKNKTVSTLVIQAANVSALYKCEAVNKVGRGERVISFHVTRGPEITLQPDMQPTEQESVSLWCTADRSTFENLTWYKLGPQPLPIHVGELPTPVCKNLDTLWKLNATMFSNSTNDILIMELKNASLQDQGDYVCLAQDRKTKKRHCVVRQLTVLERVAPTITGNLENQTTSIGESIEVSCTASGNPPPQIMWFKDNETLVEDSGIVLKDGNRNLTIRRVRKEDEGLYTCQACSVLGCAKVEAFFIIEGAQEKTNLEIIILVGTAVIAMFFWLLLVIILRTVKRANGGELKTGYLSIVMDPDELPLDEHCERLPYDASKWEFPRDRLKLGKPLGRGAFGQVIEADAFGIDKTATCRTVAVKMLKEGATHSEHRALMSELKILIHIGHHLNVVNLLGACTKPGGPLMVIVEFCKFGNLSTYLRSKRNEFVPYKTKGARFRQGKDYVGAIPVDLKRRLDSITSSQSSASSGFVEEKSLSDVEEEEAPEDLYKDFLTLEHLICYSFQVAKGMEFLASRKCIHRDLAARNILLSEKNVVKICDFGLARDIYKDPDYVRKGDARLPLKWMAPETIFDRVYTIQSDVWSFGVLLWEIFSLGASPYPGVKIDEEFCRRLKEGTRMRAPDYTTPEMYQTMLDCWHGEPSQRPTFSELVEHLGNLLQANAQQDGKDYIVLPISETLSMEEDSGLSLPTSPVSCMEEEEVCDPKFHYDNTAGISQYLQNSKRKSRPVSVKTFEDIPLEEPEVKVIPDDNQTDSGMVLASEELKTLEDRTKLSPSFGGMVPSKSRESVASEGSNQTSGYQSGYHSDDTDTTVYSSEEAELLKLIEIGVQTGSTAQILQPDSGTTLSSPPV
Chain of LYN (human) (P07948 whole entry, looked up): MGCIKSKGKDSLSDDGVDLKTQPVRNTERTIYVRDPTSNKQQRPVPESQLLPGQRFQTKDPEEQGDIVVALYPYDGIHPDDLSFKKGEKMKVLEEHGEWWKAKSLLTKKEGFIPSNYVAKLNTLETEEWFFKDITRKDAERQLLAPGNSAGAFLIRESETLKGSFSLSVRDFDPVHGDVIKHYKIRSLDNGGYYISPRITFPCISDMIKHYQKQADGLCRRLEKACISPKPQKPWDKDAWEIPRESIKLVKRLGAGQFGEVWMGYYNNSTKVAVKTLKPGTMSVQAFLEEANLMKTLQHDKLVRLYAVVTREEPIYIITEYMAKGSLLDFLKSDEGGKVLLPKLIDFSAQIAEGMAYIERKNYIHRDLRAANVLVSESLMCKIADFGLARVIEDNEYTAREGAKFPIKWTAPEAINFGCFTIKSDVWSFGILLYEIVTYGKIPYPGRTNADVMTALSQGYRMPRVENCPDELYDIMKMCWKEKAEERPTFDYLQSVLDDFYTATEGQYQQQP
Chain of MAP4K4 (human) (O95819 whole entry, looked up): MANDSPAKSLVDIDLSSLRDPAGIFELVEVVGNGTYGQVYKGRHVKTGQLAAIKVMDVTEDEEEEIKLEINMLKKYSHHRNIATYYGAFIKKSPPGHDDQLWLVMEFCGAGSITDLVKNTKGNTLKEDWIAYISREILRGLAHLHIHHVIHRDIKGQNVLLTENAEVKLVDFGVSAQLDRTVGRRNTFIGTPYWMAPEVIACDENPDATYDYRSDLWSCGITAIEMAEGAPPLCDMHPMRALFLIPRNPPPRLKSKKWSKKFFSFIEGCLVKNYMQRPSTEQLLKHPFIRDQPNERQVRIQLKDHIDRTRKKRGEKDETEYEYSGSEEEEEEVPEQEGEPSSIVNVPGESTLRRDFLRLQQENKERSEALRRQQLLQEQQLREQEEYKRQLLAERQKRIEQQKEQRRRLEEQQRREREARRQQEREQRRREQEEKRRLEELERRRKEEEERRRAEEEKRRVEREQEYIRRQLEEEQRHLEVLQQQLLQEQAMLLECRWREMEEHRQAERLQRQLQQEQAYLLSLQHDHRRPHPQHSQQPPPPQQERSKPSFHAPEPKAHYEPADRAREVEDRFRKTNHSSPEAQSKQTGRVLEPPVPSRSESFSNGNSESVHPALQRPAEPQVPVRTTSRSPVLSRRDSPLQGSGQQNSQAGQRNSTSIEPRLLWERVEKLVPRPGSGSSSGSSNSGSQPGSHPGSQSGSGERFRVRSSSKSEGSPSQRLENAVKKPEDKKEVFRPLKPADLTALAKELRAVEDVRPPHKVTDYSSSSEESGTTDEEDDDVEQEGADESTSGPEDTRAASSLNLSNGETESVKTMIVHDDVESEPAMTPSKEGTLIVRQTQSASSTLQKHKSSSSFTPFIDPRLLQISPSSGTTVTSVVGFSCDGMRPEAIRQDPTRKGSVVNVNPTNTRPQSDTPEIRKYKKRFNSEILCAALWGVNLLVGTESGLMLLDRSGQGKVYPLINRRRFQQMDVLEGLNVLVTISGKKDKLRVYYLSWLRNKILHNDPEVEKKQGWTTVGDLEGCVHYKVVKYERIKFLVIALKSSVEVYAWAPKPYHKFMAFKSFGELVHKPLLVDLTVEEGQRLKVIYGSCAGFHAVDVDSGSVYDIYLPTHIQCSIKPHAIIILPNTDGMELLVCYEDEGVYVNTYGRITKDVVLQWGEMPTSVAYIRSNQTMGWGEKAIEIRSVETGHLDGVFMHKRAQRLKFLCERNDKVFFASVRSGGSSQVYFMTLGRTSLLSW
Chain of GSK3B (human) (P49841 whole entry, looked up): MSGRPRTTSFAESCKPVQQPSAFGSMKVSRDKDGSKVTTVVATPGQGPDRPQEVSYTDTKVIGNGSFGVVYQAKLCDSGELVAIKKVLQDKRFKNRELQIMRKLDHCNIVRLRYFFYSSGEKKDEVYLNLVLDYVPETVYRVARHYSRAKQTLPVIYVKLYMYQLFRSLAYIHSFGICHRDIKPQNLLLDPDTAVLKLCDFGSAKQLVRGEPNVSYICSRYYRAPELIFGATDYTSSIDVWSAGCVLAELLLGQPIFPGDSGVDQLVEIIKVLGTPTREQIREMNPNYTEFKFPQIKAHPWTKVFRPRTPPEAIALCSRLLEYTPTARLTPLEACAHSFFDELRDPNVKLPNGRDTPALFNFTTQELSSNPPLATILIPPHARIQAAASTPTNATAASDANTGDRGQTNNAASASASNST

kinase still bound, per cent of control [1]: 40%
kinase still bound, per cent of control [2]: 40%
kinase still bound, per cent of control [3]: 40%
kinase still bound, per cent of control [4]: 1.4%
kinase still bound, per cent of control [5]: 0.3%
kinase still bound, per cent of control [6]: 40%
kinase still bound, per cent of control [7]: 0.4%
kinase still bound, per cent of control [8]: 0.05%
kinase still bound, per cent of control [9]: 5.8%
kinase still bound, per cent of control [10]: 7.4%
kinase still bound, per cent of control [11]: 17%
kinase still bound, per cent of control [12]: 0.35%
kinase still bound, per cent of control [13]: 0.1%
kinase still bound, per cent of control [14]: 0%
kinase still bound, per cent of control [15]: 40%
kinase still bound, per cent of control [16]: 12%
kinase still bound, per cent of control [17]: 2.6%
kinase still bound, per cent of control [18]: 4.8%
kinase still bound, per cent of control [19]: 40%
kinase still bound, per cent of control [20]: 0.2%
kinase still bound, per cent of control [21]: 40%
kinase still bound, per cent of control [22]: 0%
kinase still bound, per cent of control [23]: 5.8%
kinase still bound, per cent of control [24]: 5.4%
kinase still bound, per cent of control [25]: 2%
kinase still bound, per cent of control [26]: 1.1%
kinase still bound, per cent of control [27]: 40%
kinase still bound, per cent of control [28]: 0.6%
kinase still bound, per cent of control [29]: 0.15%
kinase still bound, per cent of control [30]: 2.2%
kinase still bound, per cent of control [31]: 1.4%
kinase still bound, per cent of control [32]: 0.2%
kinase still bound, per cent of control [33]: 5.2%
kinase still bound, per cent of control [34]: 5%
kinase still bound, per cent of control [35]: 1.1%
kinase still bound, per cent of control [36]: 40%
kinase still bound, per cent of control [37]: 40%
kinase still bound, per cent of control [38]: 14%
SMILES: COc1cc(N2CCC(N3CCN(C)CC3)CC2)ccc1Nc1ncc(Cl)c(Nc2ccccc2S(=O)(=O)C(C)C)n1

SMILES: CCN1CCN(Cc2ccc(NC(=O)c3ccc(C)c(/C=C/c4cnc(Nc5cc(N6CCNCC6)nc(C)n5)cn4)c3)cc2C(F)(F)F)CC1
kinase still bound, per cent of control [1]: 100%
kinase still bound, per cent of control [2]: 0.2%
kinase still bound, per cent of control [3]: 0.95%
kinase still bound, per cent of control [4]: 0.7%
kinase still bound, per cent of control [5]: 100%
kinase still bound, per cent of control [6]: 100%
kinase still bound, per cent of control [7]: 76%
kinase still bound, per cent of control [8]: 78%
kinase still bound, per cent of control [9]: 92%
kinase still bound, per cent of control [10]: 3.7%
kinase still bound, per cent of control [11]: 100%
kinase still bound, per cent of control [39]: 0.15%
kinase still bound, per cent of control [12]: 21%
kinase still bound, per cent of control [13]: 86%
kinase still bound, per cent of control [14]: 82%
kinase still bound, per cent of control [15]: 100%
kinase still bound, per cent of control [16]: 0.7%
kinase still bound, per cent of control [17]: 54%
kinase still bound, per cent of control [40]: 3.6%
kinase still bound, per cent of control [18]: 87%
kinase still bound, per cent of control [19]: 100%
kinase still bound, per cent of control [20]: 7%
kinase still bound, per cent of control [21]: 65%
kinase still bound, per cent of control [22]: 2.9%
kinase still bound, per cent of control [23]: 0.1%
kinase still bound, per cent of control [24]: 0.1%
kinase still bound, per cent of control [41]: 29%
kinase still bound, per cent of control [25]: 3.2%
kinase still bound, per cent of control [26]: 100%
kinase still bound, per cent of control [27]: 100%
kinase still bound, per cent of control [28]: 4.6%
kinase still bound, per cent of control [29]: 3%
kinase still bound, per cent of control [30]: 37%
kinase still bound, per cent of control [31]: 18%
kinase still bound, per cent of control [32]: 100%
kinase still bound, per cent of control [33]: 96%
kinase still bound, per cent of control [34]: 1%
kinase still bound, per cent of control [35]: 32%
kinase still bound, per cent of control [36]: 100%
kinase still bound, per cent of control [37]: 100%
kinase still bound, per cent of control [38]: 0%
IC50 [42]: 224 µM

SMILES: CCOc1cc(N2CCC(N3CCCCC3)CC2)ccc1Nc1nc(Nc2ccccc2S(=O)(=O)C(C)C)c2cn[nH]c2n1
kinase still bound, per cent of control [1]: 100%
kinase still bound, per cent of control [2]: 100%
kinase still bound, per cent of control [3]: 100%
kinase still bound, per cent of control [4]: 97%
IC50 [5]: 6500 µM
kinase still bound, per cent of control [5]: 0.7%
kinase still bound, per cent of control [6]: 84%
kinase still bound, per cent of control [7]: 100%
kinase still bound, per cent of control [8]: 9.1%
kinase still bound, per cent of control [9]: 65%
kinase still bound, per cent of control [10]: 100%
kinase still bound, per cent of control [11]: 100%
kinase still bound, per cent of control [39]: 100%
kinase still bound, per cent of control [12]: 94%
kinase still bound, per cent of control [13]: 40%
kinase still bound, per cent of control [14]: 100%
kinase still bound, per cent of control [15]: 100%
kinase still bound, per cent of control [16]: 22%
kinase still bound, per cent of control [17]: 7.2%
kinase still bound, per cent of control [40]: 100%
kinase still bound, per cent of control [18]: 90%
kinase still bound, per cent of control [19]: 100%
kinase still bound, per cent of control [20]: 18%
kinase still bound, per cent of control [21]: 97%
kinase still bound, per cent of control [22]: 10%
kinase still bound, per cent of control [23]: 100%
kinase still bound, per cent of control [24]: 100%
kinase still bound, per cent of control [41]: 50%
kinase still bound, per cent of control [25]: 84%
kinase still bound, per cent of control [26]: 23%
kinase still bound, per cent of control [27]: 74%
kinase still bound, per cent of control [28]: 19%
kinase still bound, per cent of control [29]: 42%
kinase still bound, per cent of control [30]: 100%
kinase still bound, per cent of control [31]: 100%
kinase still bound, per cent of control [32]: 64%
kinase still bound, per cent of control [33]: 96%
kinase still bound, per cent of control [34]: 100%
kinase still bound, per cent of control [35]: 3.4%
kinase still bound, per cent of control [36]: 100%
kinase still bound, per cent of control [37]: 100%
kinase still bound, per cent of control [38]: 93%
IC50 [42]: 67 µM

kinase still bound, per cent of control [2]: 0.1%
kinase still bound, per cent of control [3]: 24%
kinase still bound, per cent of control [4]: 0.6%
kinase still bound, per cent of control [8]: 0.5%
kinase still bound, per cent of control [10]: 2.7%
kinase still bound, per cent of control [39]: 0%
kinase still bound, per cent of control [16]: 0%
kinase still bound, per cent of control [17]: 12%
kinase still bound, per cent of control [40]: 5.3%
kinase still bound, per cent of control [20]: 0.7%
kinase still bound, per cent of control [21]: 14%
kinase still bound, per cent of control [22]: 1.5%
kinase still bound, per cent of control [23]: 0.2%
kinase still bound, per cent of control [24]: 0%
kinase still bound, per cent of control [41]: 2.4%
kinase still bound, per cent of control [25]: 11%
kinase still bound, per cent of control [28]: 1.1%
kinase still bound, per cent of control [29]: 2.4%
kinase still bound, per cent of control [30]: 1.5%
kinase still bound, per cent of control [31]: 4.2%
kinase still bound, per cent of control [33]: 19%
kinase still bound, per cent of control [34]: 0.75%
kinase still bound, per cent of control [38]: 5.1%
IC50 [42]: 298 µM
SMILES: CCN1CCN(Cc2ccc(NC(=O)c3ccc(C)c(Oc4ccnc5[nH]ccc45)c3)cc2C(F)(F)F)CC1
